# Experimental data taken from patent US12209081B2 (Katholieke Universiteit Leuven, priority 2020, dated 2025).
# Molecular target: mouse TRPM3α2 (mTRPM3) ion channel (Mus musculus (Mouse), UniProt J9SQF3)
# Test: TRPM3 ion channel driven Ca2+ uptake, Fluo-4 AM assay, mTRPM3alpha2 overexpressing flip-in HEK293 cells stimulated with pregnenolone sulfate
# Format: cell-based
# How it was run: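 Flip-in HEK293 cells loaded with Fluo-4 AM were added to plates holding compound plus 50 μM pregnenolone sulfate in Ca2+-containing Krebs buffer. Fluorescence (ex 485/em 535 nm) read directly after cell addition; % inhibition relative to PS-stimulated vehicle and positive-control inhibitor.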
# [1] = PS (50 μM) stimulated, cpds. 667-751
# [2] = PS (50 μM) stimulated, cpds. 400-499
# [3] = PS (50 μM) stimulated, cpd 001-199
# [4] = PS (50 μM) stimulated, cpds. 608-666
# [5] = PS (50 μM) stimulated, cpds. 500-599
# Chain of mouse TRPM3α2 (mTRPM3) ion channel (J9SQF3 other isoform, or with tags, fused parts or gaps): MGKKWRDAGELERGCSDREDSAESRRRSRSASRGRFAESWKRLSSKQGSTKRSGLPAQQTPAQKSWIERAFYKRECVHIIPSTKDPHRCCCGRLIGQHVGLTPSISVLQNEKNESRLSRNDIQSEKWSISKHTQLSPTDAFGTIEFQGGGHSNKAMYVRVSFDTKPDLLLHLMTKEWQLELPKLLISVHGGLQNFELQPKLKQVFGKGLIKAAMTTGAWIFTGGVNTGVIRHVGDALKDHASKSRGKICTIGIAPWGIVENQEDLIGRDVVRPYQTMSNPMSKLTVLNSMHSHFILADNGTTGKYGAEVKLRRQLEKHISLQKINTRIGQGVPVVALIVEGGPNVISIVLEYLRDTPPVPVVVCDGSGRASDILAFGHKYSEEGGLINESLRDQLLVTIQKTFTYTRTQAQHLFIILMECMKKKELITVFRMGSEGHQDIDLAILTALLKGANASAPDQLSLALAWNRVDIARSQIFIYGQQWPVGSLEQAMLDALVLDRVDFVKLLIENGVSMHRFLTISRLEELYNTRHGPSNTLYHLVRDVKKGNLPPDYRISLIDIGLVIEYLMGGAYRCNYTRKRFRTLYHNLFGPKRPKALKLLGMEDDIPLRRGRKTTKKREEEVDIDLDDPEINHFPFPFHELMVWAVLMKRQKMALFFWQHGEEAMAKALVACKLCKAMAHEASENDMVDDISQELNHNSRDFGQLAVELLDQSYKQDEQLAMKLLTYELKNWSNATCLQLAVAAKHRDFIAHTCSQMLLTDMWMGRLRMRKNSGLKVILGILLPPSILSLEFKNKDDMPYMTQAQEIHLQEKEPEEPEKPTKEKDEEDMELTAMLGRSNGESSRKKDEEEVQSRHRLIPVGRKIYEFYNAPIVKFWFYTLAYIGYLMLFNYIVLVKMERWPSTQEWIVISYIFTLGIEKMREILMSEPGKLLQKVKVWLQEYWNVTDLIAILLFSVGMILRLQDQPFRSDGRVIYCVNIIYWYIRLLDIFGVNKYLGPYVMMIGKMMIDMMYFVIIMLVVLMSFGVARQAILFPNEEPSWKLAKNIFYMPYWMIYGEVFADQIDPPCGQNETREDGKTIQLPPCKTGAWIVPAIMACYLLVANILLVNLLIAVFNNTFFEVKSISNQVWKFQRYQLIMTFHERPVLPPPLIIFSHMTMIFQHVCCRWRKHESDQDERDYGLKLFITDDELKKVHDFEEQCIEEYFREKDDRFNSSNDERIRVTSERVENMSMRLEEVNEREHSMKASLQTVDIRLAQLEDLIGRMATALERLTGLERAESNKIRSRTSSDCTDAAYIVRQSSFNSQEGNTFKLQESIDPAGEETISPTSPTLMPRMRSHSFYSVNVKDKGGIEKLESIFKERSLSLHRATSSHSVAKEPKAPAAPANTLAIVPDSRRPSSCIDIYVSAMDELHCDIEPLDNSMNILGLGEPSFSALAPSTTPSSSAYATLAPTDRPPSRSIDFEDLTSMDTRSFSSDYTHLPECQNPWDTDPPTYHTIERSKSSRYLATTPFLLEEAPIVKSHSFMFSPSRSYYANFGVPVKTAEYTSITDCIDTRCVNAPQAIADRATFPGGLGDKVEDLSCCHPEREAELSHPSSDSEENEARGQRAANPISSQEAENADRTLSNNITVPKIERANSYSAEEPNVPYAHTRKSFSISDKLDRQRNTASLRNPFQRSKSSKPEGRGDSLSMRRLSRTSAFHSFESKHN
smiles,measurement,setting,value
NC(=O)[C@H](CO)NC(=O)c1c(C(F)F)oc2ccc(OCc3ccccn3)cc12 [compound 744],IC50,[1],< 1 µM
"Cc1oc2ccc(OCc3cccnc3O)cc2c1C(=O)NC(C)(C)CO [compound 485, N-(1-hydroxy-2-methylpropan-2-yl)-5-((2-hydroxypyridin-3-yl)methoxy)-2-methylbenzofuran-3-carboxamide]",IC50,[2],< 1 µM
"Cc1ncsc1COc1ccc2oc(C)c(C(=O)Nc3cnn(C)c3)c2c1 [compound 152, 2-methyl-N-(1-methyl-1H-pyrazol-4-yl)-5-((4-methylthiazol-5-yl)methoxy)benzofuran-3-carboxamide]",IC50,[3],< 1 µM
"Cc1ccc(COc2ccc3oc(C)c(C(=O)N[C@H](C(N)=O)[C@@H](C)O)c3c2)cn1 [compound 380, N-((2S,3R)-1-amino-3-hydroxy-1-oxobutan-2-yl)-2-methyl-5-((6-methylpyridin-3-yl)methoxy)benzofuran-3-carboxamide]",IC50,"PS 50 μM, cpds 300-399",< 1 µM
"Cc1ncc(COc2ccc3oc(C)c(C(=O)NC4(C(N)=O)CC4)c3c2)s1 [compound 476, N-(1-carbamoylcyclopropyl)-2-methyl-5-((2-methylthiazol-5-yl)methoxy)benzofuran-3-carboxamide]",IC50,[2],< 1 µM
"Cc1oc2ccc(OCc3ccc4cnccc4c3)cc2c1C(=O)NC1CCN(C)CC1 [compound 061, 5-(isoquinolin-6-ylmethoxy)-2-methyl-N-(1-methylpiperidin-4-yl)benzofuran-3-carboxamide]",IC50,[3],> 20 µM
"COc1ncccc1COc1ccc2oc(C)c(C(=O)NC3(CO)CC3)c2c1 [compound 421, N-(1-(hydroxymethyl)cyclopropyl)-5-((2-methoxypyridin-3-yl)methoxy)-2-methylbenzofuran-3-carboxamide]",IC50,[2],< 1 µM
"Cc1ncsc1COc1ccc2oc(C(N)=O)c(C(=O)NC3(CO)CCOCC3)c2c1 [compound 658, N3-(4-(hydroxymethyl)tetrahydro-2H-pyran-4-yl)-5-((4-methylthiazol-5-yl)methoxy)benzofuran-2,3-dicarboxamide]",IC50,[4],> 20 µM
"Cc1nccc(COc2ccc3oc(C)c(C(=O)NC4CCNCC4(F)F)c3c2)n1 (single isomer, unassigned) [cpd 548-En 2]",IC50,[5],> 20 µM
"CC(=O)NCCNC(=O)c1c(C)oc2ccc(OCc3scnc3C)cc12 [compound 501, N-(2-acetamidoethyl)-2-methyl-5-((4-methylthiazol-5-yl)methoxy)benzofuran-3-carboxamide]",IC50,[5],< 1 µM
"Cc1ncsc1COc1ccc2oc(C)c(C(=O)NC3(CCO)CCC3)c2c1 [compound 114, N-(1-(2-hydroxyethyl)cyclobutyl)-2-methyl-5-((4-methylthiazol-5-yl)methoxy)benzofuran-3-carboxamide]",IC50,[3],< 1 µM
"Cc1oc2ccc(OCc3ncccc3F)cc2c1C(=O)NC1CCNCC1(F)F (single isomer, unassigned) [cpd 566-En 2]",IC50,[5],1 to 20 µM
"Cc1oc2ccc(OCc3ccnn3C)cc2c1C(=O)NC1(CO)COC1 [compound 524, N-(3-(hydroxymethyl)oxetan-3-yl)-2-methyl-5-((1-methyl-1H-pyrazol-5-yl)methoxy)benzofuran-3-carboxamide]",IC50,[5],< 1 µM
"Cc1oc2ccc(OCc3cccnc3C(F)(F)F)cc2c1C(=O)NC1CCNC1=O (centres unmarked) [compound 064, 2-methyl-N-(2-oxopyrrolidin-3-yl)-5-((2-(trifluoromethyl)pyridin-3-yl)methoxy)benzofuran-3-carboxamide]",IC50,[3],< 1 µM
"Cc1oc2c(F)cc(OCc3cccnc3C(F)(F)F)cc2c1C(=O)NC1CCNCC1(F)F (single isomer, unassigned) [cpd 176-En 1, N-(3,3-difluoropiperidin-4-yl)-7-fluoro-2-methyl-5-((2-(trifluoro-methyl)pyridin-3-yl)methoxy)benzofuran-3-carboxamide]",IC50,[3],1 to 20 µM
"Cc1nc(COc2ccc3oc(C)c(C(=O)N[C@@H](CO)C(N)=O)c3c2)c(C)s1 [compound 299, (S)-N-(1-amino-3-hydroxy-1-oxopropan-2-yl)-5-((2,5-dimethylthiazol-4-yl)methoxy)-2-methylbenzofuran-3-carboxamide]",IC50,"PS 50 μM, cpds 200-299",< 1 µM
"Cc1oc2ccc(OCc3cccnc3C(F)(F)F)cc2c1C(=O)NC1CNCCC1(F)F (single isomer, unassigned) [cpd 111-En 1]",IC50,[3],< 1 µM
"Cc1oc2ccc(OCc3cn(C)nc3C(F)(F)F)cc2c1C(=O)N[C@@H](CO)C(N)=O [compound 692, (S)-N-(1-Amino-3-hydroxy-1-oxopropan-2-yl)-2-methyl-5-((1-methyl-3-(trifluoromethyl)-1H -pyrazol-4-yl)methoxy)benzofuran-3-carboxamide]",IC50,[1],< 1 µM
"Cc1oc2ccc(OCc3cccnc3C(F)(F)F)cc2c1C(=O)NC1CNCC(F)(F)C1 (single isomer, unassigned) [cpd 125-En 1]",IC50,[3],< 1 µM
"Cc1cccc(COc2ccc3oc(C)c(C(=O)N[C@H]4CCNC4)c3c2)n1 [compound 029, (S)-2-methyl-5-((6-methylpyridin-2-yl)methoxy)-N-(pyrrolidin-3-yl)benzofuran-3-carboxamide]",IC50,[3],< 1 µM
"Cc1oc2ccc(OCc3c(Cl)cnn3C(C)C)cc2c1C(=O)N[C@@H](CO)C(N)=O [compound 672, (S)-N-(1-amino-3-hydroxy-1-oxopropan-2-yl)-5-((4-chloro-1-isopropyl-1H-pyrazol-5-yl)methoxy)-2-methylbenzofuran-3-carboxamide]",IC50,[1],< 1 µM
"Cc1ncsc1COc1ccc2oc(C)c(C(=O)NCC3(F)CC3)c2c1 [compound 373, N-((1-fluorocyclopropyl)methyl)-2-methyl-5-((4-methylthiazol-5-yl)methoxy)benzofuran-3-carboxamide]",IC50,"PS 50 μM, cpds 300-399",< 1 µM
"Cc1oc2c(F)cc(OCc3cccnc3C(F)(F)F)cc2c1C(=O)NC1CCNCC1(F)F (single isomer, unassigned) [cpd 176-En 2, N-(3,3-difluoropiperidin-4-yl)-7-fluoro-2-methyl-5-((2-(trifluoro-methyl)pyridin-3-yl)methoxy)benzofuran-3-carboxamide]",IC50,[3],< 1 µM
"Cc1oc2ccc(OCc3nccn3C)cc2c1C(=O)NC(C)(CO)CO [compound 422, N-(1,3-dihydroxy-2-methylpropan-2-yl)-2-methyl-5-((1-methyl-1H-imidazol-2-yl)methoxy)benzofuran-3-carboxamide]",IC50,[2],< 1 µM
"Cc1oc2ccc(OCc3ccnn3C)cc2c1C(=O)NC1(CO)CCOCC1 [compound 608, N-(4-(hydroxymethyl)tetrahydro-2H-pyran-4-yl)-2-methyl-5-((1-methyl-1H-pyrazol-5-yl)methoxy)benzofuran-3-carboxamide]",IC50,[4],< 1 µM
"Cc1ncsc1COc1ccc2oc(C)c(C(=O)N[C@H](C)C(N)=O)c2c1 [compound 271, (R)-N-(1-amino-1-oxopropan-2-yl)-2-methyl-5-((4-methylthiazol-5-yl)methoxy)benzofuran-3-carboxamide]",IC50,"PS 50 μM, cpds 200-299",< 1 µM
"Cc1oc2ccc(OCc3ccncc3)cc2c1C(=O)O [compound 004, 2-methyl-5-(pyridin-4-ylmethoxy)benzofuran-3-carboxylic acid]",IC50,[3],> 20 µM
"COc1ncccc1COc1ccc2oc(C)c(C(=O)NC3(CO)CCOCC3)c2c1 [compound 058, N-(4-(hydroxymethyl)tetrahydro-2H-pyran-4-yl)-5-((2-methoxypyridin-3-yl)methoxy)-2-methyl-benzofuran-3-carboxamide]",IC50,[3],< 1 µM
"Cc1ncsc1COc1ccc2oc(C)c(C(=O)NC(C)(CO)CO)c2c1 [compound 426, N-(1,3-dihydroxy-2-methylpropan-2-yl)-2-methyl-5-((4-methylthiazol-5-yl)methoxy)benzofuran-3-carboxamide]",IC50,[2],< 1 µM
"CCOc1ncccc1COc1ccc2oc(C)c(C(=O)NC3CCNCC3(F)F)c2c1 (single isomer, unassigned) [cpd 207-En 1]",IC50,"PS 50 μM, cpds 200-299",< 1 µM
"Cc1ncc(COc2ccc3oc(C)c(C(=O)NC(C)CO)c3c2)s1 (single isomer, unassigned) [cpd 490-En 1]",IC50,[2],< 1 µM
"Cc1ncc(COc2ccc3oc(C)c(C(=O)NC4CCS(=N)(=O)C4)c3c2)s1 (single isomer, unassigned) [cpd 727-En 1]",IC50,[1],1 to 20 µM
"Cc1oc2ccc(OCc3ccncc3)cc2c1C(=O)N[C@@H](CO)C(N)=O [compound 716, (S)-N-(1-Amino-3-hydroxy-1-oxopropan-2-yl)-2-methyl-5-(pyridin-4-ylmethoxy)benzofuran-3-carboxamide]",IC50,[1],< 1 µM
"Cc1oc2ccc(OCc3c[nH]nc3C(F)(F)F)cc2c1C(=O)NC1(CO)CCNC1=O (single isomer, unassigned) [730-En 1, N-(3-(Hydroxymethyl)-2-oxopyrrolidin-3-yl)-2-methyl-5-((3-(trifluoromethyl)-1H-pyrazol-4-yl)methoxy)benzofuran-3-carboxamide]",IC50,[1],< 1 µM
"Cc1oc2ccc(OCc3cnn(C)c3)cc2c1C(=O)N[C@@H](CO)C(N)=O [compound 698, (S)-N-(1-Amino-3-hydroxy-1-oxopropan-2-yl)-2-methyl-5-((1-methyl-1H-pyrazol-4-yl)methoxy)benzofuran-3-carboxamide]",IC50,[1],< 1 µM
"COc1ncccc1COc1ccc2oc(C)c(C(=O)NC3CCN(C)CC3)c2c1 [compound 051, 5-((2-methoxypyridin-3-yl)methoxy)-2-methyl-N-(1-methylpiperidin-4-yl)benzofuran-3-carboxamide]",IC50,[3],< 1 µM
"COc1ncccc1COc1ccc2oc(C)c(C(=O)NC(C)(C)C(N)=O)c2c1 [compound 444, N-(1-amino-2-methyl-1-oxopropan-2-yl)-5-((2-methoxypyridin-3-yl)methoxy)-2-methylbenzofuran-3-carboxamide]",IC50,[2],< 1 µM
"Cc1ccc(COc2ccc3oc(C)c(C(=O)NC4CCNCC4(F)F)c3c2)nn1 (single isomer, unassigned) [cpd 556-En 1]",IC50,[5],1 to 20 µM
